Results published in patent publication US20240067931A1, “METHODS AND COMPOSITIONS FOR SMALL MOLECULE BASED PANCREATIC BETA CELL INDUCTION” (Trailhead Biosystems Inc., priority 2022, published 2024).
Entries after “also recorded” stand apart in the source; their conditions may differ. Peptide text beside a SMILES is read from it.

How the values were obtained:
Assay type in all cases: cell-based, human
PDX1 = assay: HD-DoE perturbation matrix on DFE culture, modelling for maximal PDX1 induction; settings: DFE culture, HD-DoE, FIG. 11
Excerpt: FIG. 11 Modelling for maximal PDX1 induction. Cultures of the iPSC cell line Cr01 was differentiated to a DFE state and then subjected to an HD-DoE perturbation matrix composed of the compounds indicated in the figure. MODDE software was used to predict the optimal condition for maximizing PDX1 activation. Predicted factor additives for this optimization and the relative expression under these conditions for the genes measured are shown.
FIG. 12 Coefficient plots show main effectors for pancreatic progenitor generation from a DFE precursor. Coefficients for the HD-DoE design shown in Example 9 are shown for PDX1 and PTF1A. The co-expression of these two genes is indicative of a pancreatic field.
To determine the best way for inducing a pancreatic fate from a DFE progenitor, a subsequent HD-DoE analysis was performed. Exposing a DFE culture to a perturbation matrix composed of all previously identified effectors shown to have a positive effect on PDX1 activation was used to define optimal conditions for PDX1 induction.

[1] = system: GCG, SST, PDX1, PAX4, MAFA and NKX2.2; assay: HD-DoE stage 3 screening, heat map and dynamic profiling of endocrine and beta cell genes; settings: for effect on beta cell specific transcription factors / all genes optimized: heat maps FIG. 19 and FIG. 21; for effect on beta cell state / endocrine fate: heat map FIG. 21, dynamic profiling FIGS. 22-25
Excerpt: (§1) FIG. 19 Heat map showing descending factor contributions for the induction of INS. The three HD-DoE experiments shown in Example 17 were used for modeling the maximal expression of several other genes, including GCG, SST, PDX1, PAX4, MAFA and NKX2.2, which are indicative of endocrine cell types with a focus on pancreatic beta cells as indicated at the top of the heat map. The relative factor contributions for the activation of these different genes were then used to generate a secondary heat map representative of the gene induction logic and then ranked according to the compound's ability to induce INS. Dark blue colors indicate a high inductive capacity, while dark red colors indicative of a highly repressive capacity for activation of the genes are shown.
(§2) FIG. 21 Heat map showing descending factor contributions for the induction of INS. The four HD-DoE experiments shown in Example 19 were used for modeling the maximal expression of several other genes. These genes were GCG, SST, PDX1, PAX4, MAFA and NKX2.2. These genes are all indicative of endocrine cell types with a focus on the beta cell as indicated at the top of the heatmap. The relative factor contribution for the activation of these different genes were then used to generate a secondary heat map representative of these genes induction logic and then ranked order according to the compounds ability to induce INS. Dark blue indicates high inductive capacity, while dark red is indicative of a highly repressive effect for the activation of the genes shown.
(§3) FIGS. 22-25. Dynamic profiling of endocrine sub-type regulation. One of the HD-DoE experiments shown in Example 19 was analyzed using MODDE software and dynamic profiling of the endocrine products GCG, SST and INS are shown.
To ascertain which factors could potentially favor the beta cell over other endocrine cell types, optimizers for markers of the other endocrine cell types and beta cell specific markers were compared. The relative factor contribution from the different optimizers were compared.
Optimizers for the main pancreatic endocrine hormones and beta cell-specific transcription factors were generated to compare their contribution factors for this series of HD-DoE. Compounds that could selectively favor the differentiation of the beta cell over that of the alpha and delta cells were identified in this manner.

INS = assay: HD-DoE screening for optimal de novo beta cell induction (stage 3 cultures, 3 day perturbation), INS induction; settings: for factor contribution, induction of INS: Example 19, four HD-DoE panels, FIG. 20; for effect on INS induction: heat map FIG. 21, dynamic profiling FIGS. 22-25
Method: FIG. 18 HD-DoE screening for optimal de novo beta cell induction. Culture of the iPSC cell line CR01 were differentiated to a DFE state for 3 days. These cultures were then incubated in the presence of stage 2 media for an additional 3 days. These cultures were then incubated for an additional 5 days in the presence of GSI-XX and A8301 followed by a 3 day incubation in the presence of a perturbation matrix composed of the compounds indicated in the different panels. This was performed 3 separate times (once for each of the 3 panels). These HD-DoE experiments were then analyzed using MODDE software for maximal induction of insulin. The predicted results are shown.
FIG. 20 HD-DoE screening for optimal de novo beta cell induction. Cultures of the iPSC cell line CR01 were differentiated to a DFE state for 3 days. These cultures were then incubated in the presence of stage 2 media for an additional 3 days. These cultures were then incubated for an additional 5 days in the presence of GSI-XX and A8301 followed by a 3 day incubation in the presence of a perturbation matrix composed of the compounds indicated in the different panels. This was performed 4 separate times (once for each of the 4 panels). These HD-DoE experiments were then analyzed using MODDE software for the maximal induction of Insulin. The predicted results are shown.
as §3
To define factors contributing to the activation of INS, a series of HD-DoE perturbations were performed using factors chosen to target different aspects of beta cell biology.
To define factors contributing to the activation of INS, a series HD-DoE perturbations were performed using factors chosen to target different aspects of beta cell biology.

SST (delta cell marker) = assay: HD-DoE stage 3 screening, heat map and dynamic profiling: SST; settings: heat map FIG. 21, dynamic profiling FIGS. 22-25
Excerpt: as §1, §2, §3

GCG (alpha cell marker) = assay: HD-DoE stage 3 screening, heat map and dynamic profiling: GCG; settings: heat map FIG. 21, dynamic profiling FIGS. 22-25
Excerpt: as §1, §2, §3

Molecule	factor contribution, induction of INS (INS)	effect on INS induction (INS)	effect on SST induction / delta cell fate (SST (delta cell marker))	effect on GCG induction / alpha cell fate (GCG (alpha cell marker))	further results
COc1cc(O)c2c(c1)/C=C/C[C@H](O)[C@H](O)C(=O)/C=C\C[C@H](C)OC2=O [(5Z)-7-oxozeanol, (5Z)-7-Oxozeaenol]	–	–	–	–	factor contribution, PDX1 activation (PDX1): 8.2
Clc1ccc(C2(c3ccc(-c4cn[nH]c4)cc3)CCNCC2)cc1 [AT7867]	–	–	–	–	factor contribution, PDX1 activation (PDX1): 15.5
CC(C)Cn1c(=O)n(C)c(=O)c2[nH]cnc21 [IBMX]	–	–	–	–	effect on beta cell specific transcription factors / all genes optimized [1]: beneficial for all genes optimized
Nc1nc(OC(c2ccc(-c3cccc(F)c3)cc2)C(F)(F)F)cc(-c2ccc(C[C@H](N)C(=O)O)cc2)n1 (stereo partly drawn) [LP533401]	10.7	contributed to the induction of INS	–	–	–
Nc1nc(Nc2ccc3c(c2)CC[C@@H](N2CCCC2)CC3)nn1-c1cc2c(nn1)-c1ccccc1CCC2 [R248]	22.9	–	–	–	effect on beta cell state / endocrine fate [1]: strongest inducers of the beta cell state
Cc1nn(-c2ccccc2)c(C)c1/C=N/N1CCN(Cc2ccccc2)CC1 [SANT1]	15.0	stronger for INS induction	increased induction	increased induction	factor contribution, PDX1 activation (PDX1): 5.0; effect on beta cell state / endocrine fate [1]: increased induction of endocrine fates without total specificity towards the beta cell
CC(C)n1nc(C#Cc2ccccc2)c2c(N)ncnc21 [SPP86]	4.8	positive effect on INS induction, though with far less contribution	–	–	–
C/C(=C\c1ccc(C(=O)O)cc1)c1ccc2c(c1)C(C)(C)CCC2(C)C [TTNPB]	12.7	–	strongly inhibiting; also recorded: inhibitory	strongly inhibiting; also recorded: inhibitory	effect on beta cell state / endocrine fate [1]: strongest inducers of the beta cell state; effect on beta cell specific transcription factors / all genes optimized [1]: strongly activate all beta cell specific transcription factors
Clc1cccc(Cl)c1N=C1NCCN1 [clonidine]	–	contributed to the induction of INS	–	–	contribution factor, activation of INS (INS; Example 17, three HD-DoE panels, FIG. 18): 23.4
CC1=NS(=O)(=O)c2cc(Cl)ccc2N1 [diazoxide]	–	positively increased INS induction, though not significantly	–	–	–
C[C@H](N)C(=O)N[C@@H](CCC(N)=O)C(=O)O [glutamax] (H-Ala-Gln-OH)	–	stronger for INS induction	increased induction	increased induction	effect on beta cell state / endocrine fate [1]: preferentially favoring the beta cell fate, though to a lesser level; also recorded: positive inducer of endocrine fate; also recorded: increased induction of endocrine fates without total specificity towards the beta cell
NC(=O)CC[C@H](N)C(=O)O [glutamine]	10.4	–	–	–	–
CCC(=O)O [propionate]	5.3	significantly increased INS levels	inhibited	inhibited	effect on beta cell state / endocrine fate [1]: preferentially favoring the beta cell fate, though to a lesser level
CC1=C(/C=C/C(C)=C/C=C/C(C)=C/C(=O)O)C(C)(C)CCC1 [retinoic acid]	–	–	–	–	factor contribution, PDX1 activation (PDX1): 19.2
CN(CCOc1ccc(CC2SC(=O)NC2=O)cc1)c1ccccn1 (stereo not drawn) [rosiglitazone]	6.0	–	–	–	–
NCCc1c[nH]c2ccc(O)cc12 [serotonin]	–	–	inhibited SST induction	strongly activated GCG induction	–
NCCc1c[nH]c2ccccc12 [tryptamine]	21.2	strongest INS inducing effects	no effect	no effect	–
FGF19: FGF pathway agonist	–	contributed to overall INS induction, but to a much smaller degree	–	–	–
obestatin	9.6	contributed to the induction of INS	–	–	–
Cardiotropin: factor tested in HD-DoE for INS induction (protein, UniProt Q16619 1-201, looked up) Cardiotrophin-1: MSRREGSLEDPQTDSSVSLLPHLEAKIRQTHSLAHLLTKYAEQLLQEYVQLQGDPFGLPSFSPPRLPVAGLSAPAPSHAGLPVHERLRLDAAALAALPPLLDAVCRRQAELNPRAPRLLRRLEDAARQARALGAAVEALLAALGAANRGPRAEPPAATASAASATGVFPAKVLGLRVCGLYREWLSRTEGDLGQLLPGGSA	–	positively increased INS induction, though not significantly	–	–	–
